According to patent US10376486B2, “Compositions and methods for reactivating latent viral infections” (priority 2014, dated 2019):

Assays:
latent HIV in U1 cells = assay: HIV transcription in U1 cells (RT-qPCR); format: cell-based; conditions: 6 nM PEP005, 2 μM JQ1, 24 h
Description: FIG. 2: PEP005 synergizes with other latency reversing agents in reactivating latent HIV. (A) J-Lat A1 cells were treated with 5 ng/ml PMA, 6 nM PEP005, 500 nM SAHA, 2 μM JQ1, 2 μM GSK343, or 10 μM Prostratin alone or in combination with 6 nM PEP005 for 24 hours and the percentage of GFP expressing cells was determined using flow cytometry. **, p<0.01; *, p<0.05 compared with control treatment; **, p<0.01; *, p<0.05 compared with PEP005 treatment alone. (B) The U1 cells were treated with 5 ng/ml PMA, 6 nM PEP005, 500 nM SAHA, 2 μM JQ1, or 2 μM GSK343, alone or in combination with 6 nM PEP005 for 24 hours and the HIV transcription was evaluated using RT-qPCR. […] Statistical significance was determined using a one tailed ratio t-test comparing predicted and observed drug combination effects. *p<0.05; **p<0.01.
J-Lat A1 cells (harboring a single copy of latent HIV LTR and one copy of green fluorescent protein gene under the HIV LTR control) or U1 cells (harboring two latent HIV genomes with defective Tat gene) were cultured in RPMI1640 medium with 10% fetal bovine serum (FBS) and 1% Pen/strep in a 37° C. incubator containing 5% CO2 [24,31]. […] HIV reactivation was quantified by GFP expression using flow cytometry and the data were analyzed using FlowJo Software for J-Lat A1 cells, or by quantitative RT-PCR (RT-qPCR) for J-Lat A1 and U1 cells. […]

HIV-1 IIIB = assay: HIV-1 infection of primary CD4+ T cells pre-treated with PEP005 (RT-qPCR, p24 ELISA); format: cell-based; conditions: pre-treatment with 12 or 24 nM PEP005; 3 and 5 days after HIV infection
Description: FIG. 12: PEP005 down-modulates the expression of CD4, CCR5 and CXCR4 and inhibits HIV infection of primary CD4+ T cells ex vivo. (A) PEP005 inhibits expression of HIV receptors/co-receptors. […] The expression of CD4, CCR5 and CXCR4 genes was evaluated using RT-qPCR after normalizing for GAPDH. (B) and (C) PEP005 inhibits HIV infection of primary CD4+ T cells ex vivo. Primary CD4+ T cells were pre-treated with 12 or 24 nM PEP005 overnight and infected with the virus. The CD4+ T cells were incubated for 5 days without PEP005. The cells were collected for RT-qPCR targeting the HIV LTR region (B), or supernatants were collected for p24 ELISA (C). *, p<0.05; **, p<0.01.
Primary CD4+ T cells were isolated from peripheral blood samples of healthy HIV-negative donors and were pre-treated with PEP005 overnight. The CD4+ T cells were infected with HIV-1 (HIV-1 IIIB expanded in Jurkat T cells, 100 ng p24-gag) through spinoculation as described previously. Following an exposure of 24 hrs to HIV, the cells were washed. Cell supernatants were collected and HIV p24 levels were measured by ELISA. The cells were also collected for RNA extraction and measurement of viral transcripts by RT-qPCR.

## C/C=C(/C)C(=O)O[C@H]1C(C)=C[C@]23C(=O)[C@@H](C=C(CO)[C@@H](O)[C@]12O)[C@H]1[C@@H](C[C@H]3C)C1(C)C [PEP005, (1aR,2S,5R,5aS,6S,8aS,9R,10aR)-5,5a-Dihydroxy-4-(hydroxymethyl)-1,1,7,9-tetramethyl-11-oxo-1a,2,5,5a,6,9,10,10a-octahydro-1H-2,8a-methanocyclopenta[a]cyclpropa[e][10]annulen-6-yl (2Z)-2-methylbut-2-enoate]
Latent HIV in U1 cells
  increase in latent HIV reactivation / HIV transcription compared to controls: about 25 fold
HIV-1 IIIB
  HIV gene expression after HIV infection (RT-qPCR, HIV LTR region): dampened HIV gene expression
  viral replication after HIV infection (p24 ELISA): decreased the level of viral replication
